What was measured:
hRXRα = target: T1, hRXRα (Homo sapiens, UniProt P19793); assay: Scintillation Proximity Assay (SPA) binding assay, 9-cis[3H]-retinoic acid radioligand; conditions: RXRα ligand binding domain on SPA beads; radioligand 9-cis[3H]-retinoic acid; read-out: Apparent pKi (converted)
T1 construct: polyhistidine (N); made in house; host or cells: E. coli
T1 sequence (P19793 227-458 limits assumed): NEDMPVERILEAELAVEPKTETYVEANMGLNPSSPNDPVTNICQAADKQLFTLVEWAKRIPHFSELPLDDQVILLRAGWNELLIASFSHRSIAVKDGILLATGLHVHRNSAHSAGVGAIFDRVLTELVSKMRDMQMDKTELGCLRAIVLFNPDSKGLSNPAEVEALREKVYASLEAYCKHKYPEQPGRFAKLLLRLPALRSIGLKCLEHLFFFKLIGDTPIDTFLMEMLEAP
Procedure: The compounds were tested for their ability to bind to hRXRα using a Scintillation Proximity Assay (SPA) as is known in the art. The RXRα ligand binding domain (LBD) was expressed in E. coli as an amino-terminal polyhistidine tagged fusion protein. The LBD was then labeled with biotin and immobilized on streptavidin-modified scintillation proximity beads.
9-cis[3H]-Retinoic acid (9-cis) was the radioligand used for the assay. To each well to be assayed was added the desired concentration of the previously prepared solution of 9-cis previously incubated with receptor-coated SPA bead slurry. The plates were incubated for at least 1 hour at room temperature and bound radioactivity for each well was determined in a Wallac 1450 Microbeta counter.
In this specification, pKi=−log of the concentration of the test compound required to achieve an apparent Ki value according to the equation Ki=IC50/1+[L]/Kd, where IC50=the concentration of test compound required to inhibit 50% of the specific binding of the radioligand, [L] is the concentration of the radioligand used, and Kd is the dissociation constant for the radioligand at the receptor.

full length human RXRα = target: T2, full length human RXRα (Homo sapiens, UniProt P19793); assay: Transient transfection assay in CV-1 cells (CRBP II-tk-SPAP reporter); type: cell-based; conditions: CV-1 cells transfected with human RXRα and CRBP II-tk-SPAP reporter; 24 h incubation; SPAP activity
T2 construct: These cells were transfected with full length human RXRα; expressed in transfected cells; host or cells: CV-1 (monkey kidney cell line)
T2 sequence (P19793 1-462): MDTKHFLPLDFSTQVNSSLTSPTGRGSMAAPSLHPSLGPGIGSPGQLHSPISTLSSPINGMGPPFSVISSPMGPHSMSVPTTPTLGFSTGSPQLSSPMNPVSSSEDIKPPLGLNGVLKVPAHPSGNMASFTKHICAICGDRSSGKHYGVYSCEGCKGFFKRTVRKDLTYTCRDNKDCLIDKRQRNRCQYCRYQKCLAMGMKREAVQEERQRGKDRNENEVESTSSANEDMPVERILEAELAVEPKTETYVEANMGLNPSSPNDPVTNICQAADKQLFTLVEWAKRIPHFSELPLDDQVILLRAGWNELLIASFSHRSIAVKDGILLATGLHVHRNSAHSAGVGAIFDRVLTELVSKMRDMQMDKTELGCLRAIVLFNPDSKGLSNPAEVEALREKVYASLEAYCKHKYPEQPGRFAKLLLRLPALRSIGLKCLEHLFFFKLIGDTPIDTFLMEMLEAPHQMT
Procedure: Transcriptional activity of the compounds was measured in a monkey kidney cell line (CV-1). These cells were transfected with full length human RXRα and the natural response element, cellular retinol binding protein type II in a reporter gene construct, (CRBP II-tk-SPAP), consisting of HSV tk promoter, and the secreted placental alkaline phosphatase reporter gene. CV-1 cells were plated at a density of 24,000 cells per well in high glucose DMEM supplemented with 10% charcoal/dextran-treated FBS. Transfection mixes contained 4 ng of receptor expression vector, 8 ng of reporter plasmid, 25 ng of β-galactosidase expression vector (used as an internal control), and 43 ng of carrier plasmid. Transfections were performed with Lipofectamine according to the manufacturer's instructions. Drug dilutions were prepared in phenol red-free DMEM/F-12 with 15 mM HEPES supplemented with 10% charcoal-stripped, delipidated calf serum. Cells were incubated for 24 h in the presence of drugs, after which the medium was sampled and assayed for SPAP activity.
B-galactosidase, which measures transfection efficiency activity, was determined by using 3.6 mM o-nitrophenyl-D-galactopyranoside in 0.1 M sodium phosphate pH 7.2 buffer containing 0.13% Triton X-100 as substrate. These plates were read on a Molecular Devices Vmax spectrophotometer, at a 405 nm endpoint reading. Data were reduced using RoboFit.
The results were expressed as percent of maximum or fold activation calculated by the following formulas: fold activation=(((SPAP−SPAPsubstrate blank avg.)/(β-gal−β-gal substrate blank avg.))−DMSO vehicle avg.)/DMSO vehicle avg, and % max.=(fold activation of unknown/positive control fold activation avg.)×100.

Ki (hRXRα) [nM] | EC50 (full length human RXRα) [nM] | Compound
> 1000 | > 1000 | CC1(C)CCC(C)(C)c2cc(C3CCCc4oc(C(=O)O)cc43)ccc21 (stereo not drawn) [Example 13, 4-(5,5,8,8-Tetramethyl-5,6,7,8-tetrahydro-2-naphthalenyl)-4,5,6,7-tetrahydro-1-benzofuran-2-carboxylic acid]
> 1000 | > 1000 | CC1(C)CCC(C)(C)c2cc(Cc3csc(/C=C/C(=O)O)c3)ccc21 [Example 18, (2E)-3-{4-[(5,5,8,8-Tetramethyl-5,6,7,8-tetrahydro-2-naphthalenyl)methyl]-2-thienyl}-2-propenoic acid]
> 1000 | > 1000 | COc1cc2c(cc1Cc1coc(/C=C/C(=O)O)c1)C(C)(C)CCC2(C)C [Example 19, (2E)-3-{4-[(3-Methoxy-5,5,8,8-tetramethyl-5,6,7,8-tetrahydro-2-naphthalenyl)methyl]-2-furyl}-2-propenoic acid]
